According to paper PMC8953565 (2022):
Values belong to the molecule of their own block, whether it stands above or below them.

How the values were obtained:
[1] = system: FAM-MG-76-16-6A (DNA, aptamer) AAAAAAGTTCGTGGTGTGCTGGATGTCCACCCGACAGCCAGTCACGCGCATCGTACAGACCGTGACACATCCAGCAGCACGA; assay: graphene oxide FRET fluorescence recovery; conditions: 137 mM NaCl, 2.7 mM KCl, 1 mM CaCl2, 0.5 mM MgCl2; DPBS pH 7.4, room temperature; 10 nM aptamer on GO; compound at twice the MG concentration
[2] = system: FAM-MG-36-12 (DNA, aptamer) CCATGCGACGGACAGCACGTGTCACCGCGATCAGCC; assay: graphene oxide FRET fluorescence recovery; conditions: 137 mM NaCl, 2.7 mM KCl, 1 mM CaCl2, 0.5 mM MgCl2; DPBS pH 7.4, room temperature; 10 nM aptamer on GO; compound at twice the MG concentration
[3] = system: FAM-MG-36-17 (DNA, aptamer) CGCAGCGCGGCAGACAGTCAGGCTCAGCACGTGGCA; assay: graphene oxide FRET fluorescence recovery; conditions: 137 mM NaCl, 2.7 mM KCl, 1 mM CaCl2, 0.5 mM MgCl2; DPBS pH 7.4, room temperature; 10 nM aptamer on GO; compound at twice the MG concentration
[4] = system: MG-15 (DNA, aptamer) CGGCCAGACGACAGCCAGTCACCGGACACGATCAGG; assay: ITC; conditions: 137 mM NaCl, 2.7 mM KCl, 1 mM CaCl2, 0.5 mM MgCl2; DPBS pH 7.4, 25 °C; screen with 100 μM candidate and 10 mM MG; weak thermal variation
[5] = system: MG-24 (DNA, aptamer) ACGCACGTACGGCCAGTCATATGCGCACCGCGTTCA; assay: ITC; conditions: 137 mM NaCl, 2.7 mM KCl, 1 mM CaCl2, 0.5 mM MgCl2; DPBS pH 7.4, 25 °C; screen with 100 μM candidate and 10 mM MG; weak thermal variation
[6] = system: MG-6 (DNA, aptamer) CGCAACGCGGCAACAGAGCACAGATCGCACAGACTG; assay: ITC; conditions: 137 mM NaCl, 2.7 mM KCl, 1 mM CaCl2, 0.5 mM MgCl2; DPBS pH 7.4, 25 °C; screen with 100 μM candidate and 10 mM MG; weak thermal variation
[7] = system: MG-11 (DNA, aptamer) CATGCCCAACGACATGCAGCACGTGGCCATGCACAA; assay: ITC; conditions: 137 mM NaCl, 2.7 mM KCl, 1 mM CaCl2, 0.5 mM MgCl2; DPBS pH 7.4, 25 °C; screen with 100 μM candidate and 10 mM MG; weak thermal variation
[8] = system: MG-20 (DNA, aptamer) CGCACAGCAAGACAGCCAGTCAACAGCCGCGAATGT; assay: ITC; conditions: 137 mM NaCl, 2.7 mM KCl, 1 mM CaCl2, 0.5 mM MgCl2; DPBS pH 7.4, 25 °C; screen with 100 μM candidate and 10 mM MG; weak thermal variation
[9] = system: MG-23 (DNA, aptamer) CGCTACGACAGACAGCGTCGAGCACACAACGTTGCG; assay: ITC; conditions: 137 mM NaCl, 2.7 mM KCl, 1 mM CaCl2, 0.5 mM MgCl2; DPBS pH 7.4, 25 °C; screen with 100 μM candidate and 10 mM MG; weak thermal variation
[10] = system: MG-1 (DNA, aptamer) CCGCCACAGGACAGCCAGTCTGATCGCCATGACGAC; assay: ITC; conditions: 137 mM NaCl, 2.7 mM KCl, 1 mM CaCl2, 0.5 mM MgCl2; DPBS pH 7.4, 25 °C; screen with 100 μM candidate and 10 mM MG; weak thermal variation
[11] = system: MG-4 (DNA, aptamer) TGCAACACAACAGCCAGTCATGCCGGTGCACAGTCA; assay: ITC; conditions: 137 mM NaCl, 2.7 mM KCl, 1 mM CaCl2, 0.5 mM MgCl2; DPBS pH 7.4, 25 °C; screen with 100 μM candidate and 10 mM MG; weak thermal variation
[12] = system: MG-36-17 (DNA, aptamer) CGCAGCGCGGCAGACAGTCAGGCTCAGCACGTGGCA; assay: ITC; conditions: 137 mM NaCl, 2.7 mM KCl, 1 mM CaCl2, 0.5 mM MgCl2; DPBS pH 7.4, 25 °C; 2 mM MG into 5 μM aptamer; one-site model
[13] = system: MG-5 (DNA, aptamer) CCCCGACAGCCGGCACAATGTGTCTGCCACGGACGT; assay: ITC; conditions: 137 mM NaCl, 2.7 mM KCl, 1 mM CaCl2, 0.5 mM MgCl2; DPBS pH 7.4, 25 °C; screen with 100 μM candidate and 10 mM MG; weak thermal variation
[14] = system: MG-36-16 (DNA, aptamer) CCACCCGACAGCCAGTCACGCGCATCGTACAGACCG; assay: ITC; conditions: 137 mM NaCl, 2.7 mM KCl, 1 mM CaCl2, 0.5 mM MgCl2; DPBS pH 7.4, 25 °C; 2 mM MG into 5 μM aptamer; one-site model
[15] = system: MG-21 (DNA, aptamer) CCATGCAGCCAGCGTCCACCGTCCGTACAGTACGTG; assay: ITC; conditions: 137 mM NaCl, 2.7 mM KCl, 1 mM CaCl2, 0.5 mM MgCl2; DPBS pH 7.4, 25 °C; screen with 100 μM candidate and 10 mM MG; weak thermal variation
[16] = system: MG-18 (DNA, aptamer) CCGCAGCACGGTCGTACAGCAGCTGCCACGGCATCC; assay: ITC; conditions: 137 mM NaCl, 2.7 mM KCl, 1 mM CaCl2, 0.5 mM MgCl2; DPBS pH 7.4, 25 °C; screen with 100 μM candidate and 10 mM MG; weak thermal variation
[17] = system: MG-7 (DNA, aptamer) CGAGCCGAACGAGACGTCCAGTCCGTGCCCACGCAC; assay: ITC; conditions: 137 mM NaCl, 2.7 mM KCl, 1 mM CaCl2, 0.5 mM MgCl2; DPBS pH 7.4, 25 °C; screen with 100 μM candidate and 10 mM MG; weak thermal variation
[18] = system: MG-9 (DNA, aptamer) TCTCGCAACAGCCAGCGTCATGTGACCACGGAACCA; assay: ITC; conditions: 137 mM NaCl, 2.7 mM KCl, 1 mM CaCl2, 0.5 mM MgCl2; DPBS pH 7.4, 25 °C; screen with 100 μM candidate and 10 mM MG; weak thermal variation
[19] = system: MG-22 (DNA, aptamer) CGCGCACAGACAGCGTCATGGCCACGTACAGTTCCT; assay: ITC; conditions: 137 mM NaCl, 2.7 mM KCl, 1 mM CaCl2, 0.5 mM MgCl2; DPBS pH 7.4, 25 °C; screen with 100 μM candidate and 10 mM MG; weak thermal variation
[20] = system: MG-10 (DNA, aptamer) CGCGCAGCGGCAGACAGTCAGACTGCGACGCACGTT; assay: ITC; conditions: 137 mM NaCl, 2.7 mM KCl, 1 mM CaCl2, 0.5 mM MgCl2; DPBS pH 7.4, 25 °C; screen with 100 μM candidate and 10 mM MG; weak thermal variation
[21] = system: MG-13 (DNA, aptamer) ACGCATCGCGAACAGCCGTGCCGTGTCCACGTACAG; assay: ITC; conditions: 137 mM NaCl, 2.7 mM KCl, 1 mM CaCl2, 0.5 mM MgCl2; DPBS pH 7.4, 25 °C; screen with 100 μM candidate and 10 mM MG; weak thermal variation
[22] = system: MG-3 (DNA, aptamer) CGAGACACAGTCACGTGCATCCAGTCAGCATGCGTC; assay: ITC; conditions: 137 mM NaCl, 2.7 mM KCl, 1 mM CaCl2, 0.5 mM MgCl2; DPBS pH 7.4, 25 °C; screen with 100 μM candidate and 10 mM MG; weak thermal variation
[23] = system: MG-8 (DNA, aptamer) TGTGCCCACAACTCCAGTCACGTTCGTCCAGCTCAG; assay: ITC; conditions: 137 mM NaCl, 2.7 mM KCl, 1 mM CaCl2, 0.5 mM MgCl2; DPBS pH 7.4, 25 °C; screen with 100 μM candidate and 10 mM MG; weak thermal variation
[24] = system: MG-19 (DNA, aptamer) CGCAGACAGCCAGTCAGGGAGCGTCCAGTCCGACAC; assay: ITC; conditions: 137 mM NaCl, 2.7 mM KCl, 1 mM CaCl2, 0.5 mM MgCl2; DPBS pH 7.4, 25 °C; screen with 100 μM candidate and 10 mM MG; weak thermal variation
[25] = system: MG-14 (DNA, aptamer) CACCGCCAGGGACAGCCAGTCACGTAGCCCGGAACG; assay: ITC; conditions: 137 mM NaCl, 2.7 mM KCl, 1 mM CaCl2, 0.5 mM MgCl2; DPBS pH 7.4, 25 °C; screen with 100 μM candidate and 10 mM MG; weak thermal variation
[26] = system: MG-2 (DNA, aptamer) AGCCCGAGCTGCAGCCAGAATGTGCCACGTGTACGT; assay: ITC; conditions: 137 mM NaCl, 2.7 mM KCl, 1 mM CaCl2, 0.5 mM MgCl2; DPBS pH 7.4, 25 °C; screen with 100 μM candidate and 10 mM MG; weak thermal variation
[27] = system: MG-36-12 (DNA, aptamer) CCATGCGACGGACAGCACGTGTCACCGCGATCAGCC; assay: ITC; conditions: 137 mM NaCl, 2.7 mM KCl, 1 mM CaCl2, 0.5 mM MgCl2; DPBS pH 7.4, 25 °C; 2 mM MG into 5 μM aptamer; one-site model

SMILES: Cc1cc(C)nc(NS(=O)(=O)c2ccc(N)cc2)n1
binding [2]: no
binding [3]: no

SMILES: NN1CC(=O)NC1=O
binding [2]: no

SMILES: NN1CC(CN2CCOCC2)OC1=O (stereo not shown)
binding [2]: no

SMILES: NN1CCOC1=O
binding [2]: no

SMILES: NNC(N)=O
binding [2]: no

SMILES: O=C(N[C@H](CO)[C@H](O)c1ccc([N+](=O)[O-])cc1)C(Cl)Cl
binding [1]: no
binding [2]: no
binding [3]: no

Further lines, results first:

binding [1]: no
binding [2]: no
binding [3]: no
SMILES: CN(C)c1ccc(C(=C2C=CC(=[N+](C)C)C=C2)c2ccc(N(C)C)cc2)cc1

binding [4]: no
binding [5]: no
binding [6]: no
binding [7]: no
binding [8]: no
binding [9]: no
binding [10]: no
binding [11]: no
Kd [12]: 102.46 µM
binding [13]: no
Kd [14]: 71.94 µM
binding [15]: no
binding [16]: no
binding [17]: no
binding [18]: no
binding [19]: no
binding [20]: no
binding [21]: no
binding [22]: no
binding [23]: no
binding [24]: no
binding [25]: no
binding [26]: no
Kd [27]: 169.78 µM
SMILES: CN(C)c1ccc(C(=C2C=CC(=[N+](C)C)C=C2)c2ccccc2)cc1

binding [1]: no
binding [2]: no
binding [3]: no
SMILES: CN(C)c1ccc(C(c2ccccc2)c2ccc(N(C)C)cc2)cc1

binding [2]: no
SMILES: Nc1ccc(S(=O)(=O)Nc2ccccn2)cc1
